Test results as given in US5043332A, “Novel 11β-substituted -19-nor-steriods” (priority 1981, dated 1991).
Like-named read-outs stand apart in the source and are kept apart here.

Key:
[1] = system: thymocytes of surrenalectomized rats; assay: Antiglucocorticoidal activity, incorporation of tritiated uridine in thymocytes; type: cell-based; conditions: for % inhibition of effect of Dexamethasone (symbol) / inhibition at 1 µM: 5 × 10^-8 M dexamethasone + test product 10^-6 M; for inhibition at 0.1 µM / inhibition at 0.01 µM / inhibition at 1 µM: Rattus norvegicus, Thymocyte; for inhibition at 0.1 µM: 5 × 10^-8 M dexamethasone + test product 10^-7 M; for inhibition at 0.01 µM: 5 × 10^-8 M dexamethasone + test product 10^-8 M; for opposition to the effect of dexamethasone on tritiated uridine incorporation (in words): with 5×10^-8 M dexamethasone
[2] = molecular target: T1, Gluocorticoid receptor of thymus of rats (Rattus norvegicus, UniProt P06536); assay: Glucocorticoid receptor binding (displacement of tritiated dexamethasone); conditions: for affinity for glucocorticoid receptors (in words): conclusion
T1 construct: The thymus were removed and homogenized at 0° C; from tissue; host or cells: rat thymus, 105,000 g supernatant (adrenalectomized male Sprague-Dawley rats)
T1 sequence (P06536 1-795): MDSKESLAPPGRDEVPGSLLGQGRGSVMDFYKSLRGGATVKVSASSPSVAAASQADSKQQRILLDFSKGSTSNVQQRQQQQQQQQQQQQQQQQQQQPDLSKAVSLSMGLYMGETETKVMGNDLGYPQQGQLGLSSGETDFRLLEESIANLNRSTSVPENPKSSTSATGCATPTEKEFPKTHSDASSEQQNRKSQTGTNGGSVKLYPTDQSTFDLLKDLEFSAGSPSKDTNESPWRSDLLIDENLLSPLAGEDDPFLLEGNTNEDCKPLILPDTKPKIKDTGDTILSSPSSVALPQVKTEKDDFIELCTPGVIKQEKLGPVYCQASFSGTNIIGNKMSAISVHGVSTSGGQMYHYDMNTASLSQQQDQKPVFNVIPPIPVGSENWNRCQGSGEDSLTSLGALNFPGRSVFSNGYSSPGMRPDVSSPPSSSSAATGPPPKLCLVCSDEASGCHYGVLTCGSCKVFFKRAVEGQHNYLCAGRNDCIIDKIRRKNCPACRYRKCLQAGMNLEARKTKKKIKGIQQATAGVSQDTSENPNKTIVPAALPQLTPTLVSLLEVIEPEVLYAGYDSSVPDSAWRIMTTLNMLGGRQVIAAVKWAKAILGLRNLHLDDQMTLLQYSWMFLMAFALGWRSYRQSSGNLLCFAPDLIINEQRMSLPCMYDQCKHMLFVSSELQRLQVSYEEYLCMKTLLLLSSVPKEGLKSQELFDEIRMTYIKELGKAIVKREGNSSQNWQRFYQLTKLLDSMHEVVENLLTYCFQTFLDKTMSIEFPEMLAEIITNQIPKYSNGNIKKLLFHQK
Experimental: D. Gluocorticoid receptor of thymus of rats
Male Sprague-Dawley EPOS rats weighing 160 to 200 g were surrenalectomized and the animals were killed 4 to 8 days later. The thymus were removed and homogenized at 0° C. in a buffered TS solution of 10 mM, Tris, 0.25M of Saccharose, 2 mM of dithiothreitol HCl for a pH of 7.4 using a polytetrafluoroethylene-glass Potter at a rate of 1 g of tissue per 10 ml of TS. […] The concentration of tied tritiated dexamethasone (B) was measured for each incubate by the adsorption on carbon-dextran technique.
The calculation of the relative affinity of […] (ARL) was identical for all of the above receptor tests. One traced the following two curves: the percentage of tied tritiated hormone B/T as a function of the logarithm of the cold hormone concentration and B/T as a function of the logarithm of the concentration of the cold test product. One determined the line of the equation. [formula]
The intersection of the I50 line and the curves permits one to determine the concentrations of the cold hormone of the reference (CH) and the cold test compound (CX) which inhibit by 50% the tieing of tritiated hormone with the receptor. The relative affinity of tieing (ARL) of the test product was determined by the equation: [formula]

[3] = read-out: % inhibition of effect of Dexamethasone
[4] = second table, read-out: % of inhibition of effect of Dexamethasone

relative affinity of tieing (ARL), Glucocorticoid ([2]; incubation 4 H at 0° C.)	relative affinity of tieing (ARL), Glucocorticoid ([2]; incubation 24 H at 0° C.)	Structure (SMILES)	% inhibition of effect of Dexamethasone (symbol) [1]	inhibition at 0.1 µM [1, 3]	inhibition at 0.01 µM [1, 3]	opposition to the effect of dexamethasone on tritiated uridine incorporation (in words) [1]	affinity for glucocorticoid receptors (in words) [2]	other results
224	299	CC#C[C@]1(O)CC[C@H]2[C@@H]3CCC4=CC(=O)[C@@H](C)CC4=C3[C@@H](c3ccc(N(C)C)cc3)C[C@@]21C [5 (2β), 2-methyl-11β-(4-dimethylaminophenyl)-17α-(prop-1-ynyl)-Δ^4,9-estradiene-17β-ol-3-one]	* (A dose of 10^-6 M inhibited the effect of dexamethasone totally)	57%	10%	–	–	–
–	–	C#C[C@@]1(O)CC[C@H]2[C@@H]3CCC4=CC(=O)CCC4=C3[C@@H](c3ccc(N(C)C)cc3)C[C@@]21C [Example 21, 11β-[4-(N,N-dimethylamino)-phenyl]-17β-ethynyl-Δ^4,9-estradiene-17α-ol-3-one]	–	–	–	opposed this effect	–	inhibition at 1 µM [1, 4]: 83%; inhibition at 0.1 µM [1, 4]: 15%; inhibition at 0.01 µM [1, 4]: 5%; relative affinity of tieing (ARL), Glucocorticoid ([2]; second table, incubation 4 H at 0° C.): 171; relative affinity of tieing (ARL), Glucocorticoid ([2]; second table, incubation 24 H at 0° C.): 118
–	–	CC#C[C@]1(O)CC[C@H]2[C@@H]3CCC4=CC(=O)[C@H](C)CC4=C3[C@@H](c3ccc(N(C)C)cc3)C[C@@]21C [Example 5, 2α-methyl-11β-(4-dimethylaminophenyl)-17α-(prop-1-ynyl)-Δ^4,9-estradiene-17β-ol-3-one]	–	–	–	opposed this effect	very remarkable affinity	–
214	255	CC#C[C@]1(O)CC[C@H]2[C@@H]3CCC4=CC(=O)[C@H](C)CC4=C3[C@@H](c3ccc(N(C)C)cc3)C[C@@]21C [5 (2α), 2α-methyl-11β-(4-dimethylaminophenyl)-17α-(prop-1-ynyl)-Δ^4,9-estradiene-17β-ol-3-one]	–	57%	19%	–	–	inhibition at 1 µM [1, 3]: 100%
–	–	CC#C[C@]1(O)CC[C@H]2[C@@H]3CCC4=CC(=O)CCC4=C3[C@@H](c3ccc(N(C)C)cc3)C[C@@]21C [Example 19, 11β-[4-(N,N-dimethylamino)-phenyl]-17α-(prop-1-ynyl)-Δ^4,9-estradiene-17β-ol-3-one]	–	–	–	opposed this effect	very remarkable affinity	–

Structure (SMILES)	relative affinity of tieing (ARL), Glucocorticoid ([2]; incubation 4 H at 0° C.)	relative affinity of tieing (ARL), Glucocorticoid ([2]; incubation 24 H at 0° C.)	% inhibition of effect of Dexamethasone (symbol) [1]	inhibition at 0.1 µM [1, 3]	inhibition at 0.01 µM [1, 3]	opposition to the effect of dexamethasone on tritiated uridine incorporation (in words) [1]	affinity for glucocorticoid receptors (in words) [2]	other results
CC#C[C@]1(O)CC[C@H]2[C@@H]3CCC4=C(CCC(=O)C4)[C@H]3[C@@H](c3ccc(N(C)C)cc3)C[C@@]21C [Example 10, 11β-(4-dimethylaminophenyl)-17α-(prop-1-ynyl)-Δ^5(10) -estrene-17β-ol-3-one]	83	115	* (A dose of 10^-6 M inhibited the effect of dexamethasone totally)	23%	0%	opposed this effect	–	–
